We go through three compounds from patent publication US5726177A, “Indole-derived arylpiperazines as ligands for 5HT1 -like, 5HT1B and 5HT1D receptors” (Pierre Fabre Medicament, priority 1993, dated 1998).

Broadly, the Ki is a measure of affinity in units of concentration, obtained from inhibition or displacement. What is called EC50 is the concentration needed to bring the measured effect to its halfway point.

SMILES strings stand for the structures. Counter-ions that a name gives are not always drawn. Like-named read-outs stand apart in the source and are kept apart here.

One assay has as its target T1, human 5HT1A receptor (Homo sapiens, UniProt P08908).
T1 sequence (P08908 1-422): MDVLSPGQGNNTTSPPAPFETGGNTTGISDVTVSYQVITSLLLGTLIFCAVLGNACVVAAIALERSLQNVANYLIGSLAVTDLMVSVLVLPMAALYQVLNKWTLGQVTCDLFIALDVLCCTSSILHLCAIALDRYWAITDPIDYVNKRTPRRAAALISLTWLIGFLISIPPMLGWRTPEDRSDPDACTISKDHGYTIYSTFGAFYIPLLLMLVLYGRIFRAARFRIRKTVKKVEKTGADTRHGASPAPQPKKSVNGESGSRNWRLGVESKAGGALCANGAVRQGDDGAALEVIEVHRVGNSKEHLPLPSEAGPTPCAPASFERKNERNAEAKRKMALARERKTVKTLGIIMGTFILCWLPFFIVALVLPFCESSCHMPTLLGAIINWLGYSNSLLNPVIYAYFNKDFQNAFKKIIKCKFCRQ
The assay can be described thus: Binding to human 5HT1A receptor (HeLa HA7 cell line). Here is the method:
The HeLa HA7 cell line expressing the 5HT1A human receptor was obtained from Tulco (Duke Univ., Durham, N.C., USA) and cultured according to the method of Fargin et al., J. Biol. Chem., 264, 14848 (1989).
(§1) The binding of the derivatives of the present invention with human 5HT1Da, 5HT1Db and 5HT1A receptors was studied according to the method described by P. Pauwels and C. Palmier (Neuropharmacology, 33, 67, 1994).
(§2) The incubation media for these binding measurements comprise 0.4 ml of cell membrane preparation, 0.05 ml of a tritiated ligand [[3H]-SCT (final concentration: 2 nM) for the 5HT1Da and 5HT1Db receptors and [3H]-80H-DPAT (final concentration: 1 nM) for the 5HT1A receptor] and 0.05 ml of the molecule to be tested (final concentrations from 0.1 nM to 1000 nM) or 10 μM (final concentration) of serotonin (5HT1Da and 5HT1Db) or 1 μM (final concentration) of spiroxatrin (5HT1A ).

In the next assay the target is human 5HT1Da receptor (Homo sapiens, UniProt P28221). Put plainly: Binding to cloned human 5HT1Da receptor. As for the experimental part:
(§3) Human 5HT1Da and 5HT1Db receptors were cloned according to the sequences published by M. Hamblin and M. Metcalf, Mol. Pharmacol., 40, 143 (1991) and Weinshenk et al., Proc. Natl. Acad. Sci., 89, 3630 (1992).
(§4) The transient transfection and the stable transfection of the genes of these receptors was carried out in Cos-7 and CHO-K1 cell lines by using an electroporator.
as §1, §2

Assay [1] concerns the target T2, human 5HT1Db receptor (Homo sapiens, UniProt P28222). The assay can be described thus: Binding to cloned human 5HT1Db receptor. As for the experimental part: as §3, §4, §1, §2
Assay [2] deals with T2, human 5HT1Db receptor. Put plainly: cell-based. As for the experimental part: as §3, §4
The inhibition of the formation of cyclic AMP (stimulated by forskolin) mediated by the human 5HT1Db receptor was studied in CHO-K1 cells transfected by the receptor according to the technique described previously for the 5HT1B receptor (P. Pauwels and C. Palmier, Neuropharmacology, 33, 67, 1994).

The mark [3] stands for this setting: HeLa HA7 cells, [3H]-DPAT ligand 1 nM, read-out: Ki 5HT1A.
Where [4] appears, read: human cloned receptor, [3H] ligand 2 nM, read-out: Ki 5HT1Da.
Where [5] appears, read: human cloned receptor, [3H] ligand 2 nM, read-out: Ki 5HT1Db.
[6] abbreviates: human 5HT1Db, CHO-K1 cells, read-out: EC50 (Inhibition of the 5HT1Db cyclase stimulated by forskolin).

Chain of human 5HT1Da receptor (P28221 whole entry): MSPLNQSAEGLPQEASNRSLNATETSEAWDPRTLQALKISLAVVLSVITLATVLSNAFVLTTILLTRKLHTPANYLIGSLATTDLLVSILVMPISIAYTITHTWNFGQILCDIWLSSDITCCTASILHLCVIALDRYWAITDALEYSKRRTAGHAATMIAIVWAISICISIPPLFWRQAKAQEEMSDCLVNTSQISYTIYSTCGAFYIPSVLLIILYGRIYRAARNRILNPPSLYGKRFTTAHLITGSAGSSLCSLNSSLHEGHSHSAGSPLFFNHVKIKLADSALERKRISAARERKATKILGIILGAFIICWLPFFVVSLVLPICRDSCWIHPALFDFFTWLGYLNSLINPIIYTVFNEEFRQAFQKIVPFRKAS
T2 sequence (P28222 whole entry): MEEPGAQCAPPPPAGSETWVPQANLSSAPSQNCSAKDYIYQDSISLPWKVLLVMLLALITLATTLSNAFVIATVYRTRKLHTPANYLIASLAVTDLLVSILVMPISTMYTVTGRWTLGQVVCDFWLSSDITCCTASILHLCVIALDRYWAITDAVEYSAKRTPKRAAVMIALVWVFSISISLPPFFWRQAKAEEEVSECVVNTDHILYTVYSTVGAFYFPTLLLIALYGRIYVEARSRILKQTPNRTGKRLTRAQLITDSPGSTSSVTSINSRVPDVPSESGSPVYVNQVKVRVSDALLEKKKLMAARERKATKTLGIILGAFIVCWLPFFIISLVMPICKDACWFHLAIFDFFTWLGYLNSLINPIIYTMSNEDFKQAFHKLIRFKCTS

Regarding `NCCc1c[nH]c2ccc(OCC(=O)N3CCN(c4ccc(NC(=O)Oc5ccccc5)cc4)CC3)cc12` [Example 33, N-[4-(4-{2-[3-(2-Aminoethyl)-1H-indol-5-yloxy]acetyl}-piperazin-1-yl)phenyl]phenylcarbamate], the Ki is 39 nM at human 5HT1A receptor, 2.8 nM on human 5HT1Da receptor and 2 nM at human 5HT1Db receptor [1]. This compound had an EC50 at human 5HT1Db receptor [2] of 9 nM.

As to `CS(=O)(=O)Nc1ccc(N2CCN(CCOc3ccc4[nH]cc(CCN)c4c3)CC2)cc1` [Example 41, N-[4-(4-{2-[3-(2-Aminoethyl)-1H-indol-5-yloxy]ethyl}piperazin-1-yl)phenyl]methanesulfonamide hydrochloride], the Ki at human 5HT1A receptor (setting [3]) was 28 nM; at human 5HT1Da receptor (setting [4]), 1.1 nM; at human 5HT1Db receptor [1] (setting [5]), 0.7 nM. Further, the EC50 on human 5HT1Db receptor [2] (setting [6]) turned out to be 2.6 nM.

`NCCc1c[nH]c2ccc(OCC(=O)N3CCN(c4ccc(NS(=O)(=O)c5ccc([N+](=O)[O-])cc5)cc4)CC3)cc12` [Example 26, N-[4-(4-{2-[3-(2-Aminoethyl)-1H-indol-5-yloxy]acetyl}piperazin-1-yl)phenyl]-4-nitrophenylsulfonamide hydrochloride]: the Ki at human 5HT1A receptor (setting [3]) came out at 16.5 nM; on human 5HT1Da receptor (setting [4]) it was 0.25 nM; at human 5HT1Db receptor [1] (setting [5]), 0.5 nM. Further, the EC50 on human 5HT1Db receptor [2] (setting [6]) was 6.5 nM.
